One may read the IC50 as the midpoint of a concentration-inhibition curve.

One molecule from patent publication US20230089916A1, “IRAK DEGRADERS AND USES THEREOF” (Kymera Therapeutics, Inc., priority 2019, published 2023) can be followed below.

Common to all, as to format: cell-based
For one assay, the system named is U2932 cells (MYD88 WT). The experiment in a line: Cell viability (CTG) with U2932. To be noted: Homo sapiens, MYD88 WT line.
Assay [1] deals with OCI-LY19 cells (MYD88 WT). Kind of assay: Cell viability (CTG) with OCI-LY19. Conditions: Homo sapiens, MYD88 WT line.
Assay [2] deals with OCI-LY10 cells (MYD88 mutant). Kind of assay: Cell viability assay (CellTiter-Glo) with OCI-LY10. Conditions: Homo sapiens, MYD88 mutant line, read-out: OCI-LY10 Viability, CTG IC50. The method, then: Compound-mediated viability effect on OCI-LY10 or TMD8 was quantitatively determined using the CellTiter-Glo® Luminescent Cell Viability Assay kit from Promega (Catalog number G7570) following manufacturer's recommended procedures. Briefly, OCI-LY10 or TMD8 cells were seeded into 384 well plates (Grenier Bio-One, Catalog number 781080) with a density of 10,000 cells per well. Compounds were then added to the assay plate with final top concentration of 10 μM and 1:3 dilution series with total of 9 doses. The final DMSO concentration was normalized to 0.2%. The assay plates were incubated at 37° C. for 4 days under 5% CO2. Then the assay plate was equilibrated at room temperature for 10 minutes. To determine cell viability, 30 μL CellTiter Glo reagent was added to each well and the assay plate was centrifuged at 1000 rpm for 30 second, incubated at room temperature for 10 min, and analyzed by detecting the luminescence using a multimode plate reader (EnVision 2105, PerkinElmer). The data was then analyzed by software Prism 7.0 from GraphPad and the dose response curves were fit using a three-parameter logistic equation to calculate IC50.
Background: ATP-based viability assays read luminescence as a measure of living cells.

The subject of the next assay is SU-DHL6 cells (MYD88 WT). Kind of assay: Cell viability (CTG) with SU-DHL6. To be noted: Homo sapiens, SU-DHL-6; MYD88 WT line.
Assay [3] relates to SU-DHL2 cells (MYD88 mutant). Kind of assay: Cell viability (CTG) with SU-DHL2. To be noted: Homo sapiens, SU-DHL-2; MYD88 mutant line.

As for `CC[C@@H]1CC(=O)N[C@@H]1COc1ncc(C#C[C@H]2CC[C@H](CN3CCC(OCCCc4cccc5c4n(C)c(=O)n5C4CCC(=O)NC4=O)CC3)CC2)c2cc(C(N)=O)c(OC)cc12` (some centres unmarked) [I-1], the IC50 with U2932 cells (MYD88 WT) was greater than 10 µM; in assay [1] it was greater than 10 µM; in assay [2] it was 3.5 µM; in the assay on SU-DHL6 cells (MYD88 WT), 4.1 µM; in assay [3], greater than 10 µM.
